Test results taken from US6537992B2, “Regulation of organic nitrate tolerance” (priority 2001, dated 2003).

How the values were obtained:
[1] = Forearm blood flow by strain gauge plethysmography at rest and in response to sublingual nitroglycerin; type: in vivo, human; settings: sublingual GTN 0.6 mg, before continuous GTN therapy, both groups
Method: (§1) Normal volunteers (n=20) were randomized in a double bind, placebo-controlled fashion to either oral folate (5 mg per day) or placebo. After 1 week of this double-blind therapy, subjects returned to the laboratory. At that time, measures of standing systolic blood pressure and heart rate were recorded. Subsequently, measurements of forearm blood flow were made at rest and in response to sublingual nitroglycerin (0.6 mg). […] A Randomized Double-blind, Placebo-controlled Study, J Cardiovasc Pharm. 1999;34:645-659.
(§2) Subsequently all subjects all received transdermal GTN (0.6 mg/hr). Standing heart rate and blood pressure responses were repeated 3 hours after initial patch application. Subjects were discharged from the laboratory with instructions to take transdermal GTN continuously for the next 5 to 7 days, changing the patch each day at 0800 hours. After 5 to 7 days, subjects returned to the laboratory where measures of standing systolic blood pressure and heart rate as well as forearm blood flow were repeated.

[2] = Standing systolic blood pressure and heart rate in normal volunteers during transdermal GTN, with oral folate or placebo; type: in vivo, human; settings: acute transdermal GTN 0.6 mg/hr, 3 hours after initial patch application, both placebo and folate groups
Method: as §1, §2

O=[N+]([O-])OCC(CO[N+](=O)[O-])O[N+](=O)[O-] [GTN, glyceryl trinitrate]
forearm blood flow after sublingual administration [1]: similar, significant increase | heart rate after acute administration [2]: significant increase | systolic blood pressure after acute administration [2]: significant fall
